Measured values: patent US20140106380A1, “METHODS FOR IDENTIFYING INHIBITORS OF ABETA42 OLIGOMERS” (Merck Sharp & Dohme Crop., priority 2010, published 2014)

Key:
Assay type in all cases: biochemical
Aβ42 [1] = target: T1, Aβ42 (Homo sapiens, UniProt P05067); test: Dynamic light scattering of Aβ42 oligomerization; conditions: Aβ42 40 μM, 25 °C, in the presence of SI
T1 construct: Synthetic human Aβ1-42, purchased from American Peptide Company (Sunnyvale, Calif.); purchased American Peptide Company (Sunnyvale, Calif.); host or cells: chemically synthesised peptide
T1 sequence (P05067 672-713 limits assumed): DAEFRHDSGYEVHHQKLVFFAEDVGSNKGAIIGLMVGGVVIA
Procedure: Dynamic light scattering (DLS), also known as also known as quasi-elastic laser light scattering, offered another methodology to determine Aβ42 oligomerization by measuring the size distribution profile and shape of particles in solution. […] Sample preparation for the DLS assay was performed in a bio-safety cabinet. All solutions and reagents were pre-filtered with a 0.1 μm Whatman filter (Whatman, Piscataway, N.J.). Aβ42 (100 μM) made in PBS from the 1 mM DMSO stock (Example 1) was filtered with a 0.2 μm filter (Whatman, Piscataway, N.J.) and diluted to 50 μM to 10 μM with PBS or water. The samples were added to the DLS plate (50 μl/well) in the presence or absence of compounds and incubated at room temperature for seven to eight hours. The plate was briefly centrifuged (1 minute at 3000 rpm) and placed in the DynaPro DLS plate reader (Wyatt Technology, Dernbach, Germany), in which different parameters (normalized intensity, hydrodynamic radius, molecular weight, relative molecular mass, percent polydispersity, and sum of square) of the Aβ42 oligomer samples were measured, and analyzed with Dynamics 7.0.0 software (Wyatt Technology, Dernbach, Germany).

Aβ42 oligomers [2] = target: T2, Aβ42 oligomers (Homo sapiens, UniProt P05067); test: Aβ42 NT immunoassay (6E10-6E10); conditions: P<0.01
T2 construct: Synthetic human Aβ1-42, purchased from American Peptide Company (Sunnyvale, Calif.); purchased American Peptide Company (Sunnyvale, Calif.); host or cells: chemically synthesised peptide
T2 sequence (P05067 672-713 limits assumed): as above
Procedure: The effect of an Aβ oligomer inhibitor on the metastability of Aβ42 oligomers prepared according Example 1 was evaluated as follows. A sample of the 1 mM Aβ42 DMSO stock was diluted to 10 μM or 100 μM in PBS or Neurobasal (e.g., 10 μl of 1 mM Aβ42 DMSO stock to make 1 ml 10 μM solution or 100 μl A(342 DMSO stock to make 1 ml 100 μM solution). After incubation at 37° C., the diluted oligomer solutions were mixed with scyllo-inositol (SI), a naturally occurring plant sugar alcohol found most abundantly in the coconut palm, to make a final concentrations of 1 μM or 10 μM Aβ42 containing 10 mM SI. The non-compound control oligomer sample contained no SI. The mixtures were incubated on ice for two to three hours to allow establishment of new equilibrium (metastability) among Aβ42 species. The stabilized mixtures were then utilized in the immunoreactive assays. An Aβ42 N-terminal (NT) oligomer ELISA was performed by adopting a 6E10-6E10 ELISA originally developed in house at Merck and also reported by others (Gandy et al., 2010, Ann. Neurol. 68: 220-230; Xia et al., 2009, Arch. Neurol. 66:190-199). […] The immunoreactive signals were read with a multilabel plate reader (EnVision®, PerkinElmer, Waltham, Mass.). The presence of Aβ42 oligomers was determined by a corresponding increase in the NT immunosignal. Values for the ELISA assays were graphed and analyzed with Prism GraphPad software. […]

Aβ42 [3] = target: T1, Aβ42; test: Aβ42 CT AlphaLISA, inhibition of early oligomerization; conditions: for Aβ42 CT immunoreactivity: Aβ42 1 nM, oligomerization at 4° C. overnight, different buffers, AlphaLISA
Procedure: To test a compound's effect on inhibition of early oligomerization, SI, or a different testing compound, was mixed with the Aβ42 solution to make solutions with final concentrations of SI from 0.1 μM to 10 mM (0.1 μM, 1 μM, 10 μM, 100 μM, 1 mM, and 10 mM) and Aβ42 from 1 nM to 10 μM (1 nM, 10 nM, 100 nM, 1 μM and 10 μM). For example, a 10 μM Aβ42 solution contained, respectively, 0 μM, 0.1 μM, 1 μM, 10 μM, 100 μM, 1 mM and 10 mM SI. The same SI concentration series was applied to other concentrations of the Aβ42 solution indicated above. The mixtures were either incubated at 4° C. overnight or room temperature for two to three hours, before being used in the immunoreactive assay. Similarly, the presence of Aβ42 oligomers was detected using an Aβ42 C-terminal (CT) AlphaLISA assay (Eglen et al., 2008, Curr. Chem. Genomics, 1:2-10), a bead based proximity assay, based upon an oxygen channeling technology. The assay was carried out in a 384 well plate using an AlphaLISA® Human Amyloid β 1-[…]42 Research Immunoassay Kit (PerkinElmer, Waltham, Mass.) according to the manufacturer's directions. To make a 2.5× AlphaLISA acceptor bead and biotinylated anti-Aβ42 antibody mixture, 5.5 μl acceptor beads conjugated to anti-Aβ42 (12F4) and 5.5 μl biotin-Aβ42 antibody (binds to a epitope away from the CT of Aβ42) were added to 1,089 μl 1S AlphaLISA buffer and mixed by brief vortexing. To each well of a 384-well plate, 8 μl of the mix and 2 μl of an Aβ42 sample were added, followed by gentle tapping of the plate to mix the solutions. The plate was incubated at room temperature for one hour. The streptavidin donor bead solution was made in a dark room under safety light by mixing 20.1 μl of streptavidin donor beads with 1,279 μl 1× AlphaLISA buffer. The streptavidin donor bead solution, which binds to the biotinylated anti-Aβ42 antibody, was then added (10 μl/well) to the plate, sealed with an adhesive aluminum membrane, and incubated at room temperature for 30 minutes. Incubation brought the donor and acceptor beads into close proximity. An immunoreactive signal was generated when the donor bead released a singlet oxygen that, when excited at 680nm, was transferred to the acceptor bead, resulting in a light emission at 610 nm. The immunoreactive signals were read with a multilabel plate reader (EnVision®, PerkinElmer, Waltham, Mass.). The presence of Aβ42 oligomers was determined by a corresponding decrease in the C-terminal immunosignal. Values for the AlphaLISA assays were graphed and analyzed with Prism GraphPad software. Similar to signals generated with ELISA, the extent of Aβ42 oligomerization is inversely correlated with the magnitude of the CT immunosignal in AlphaLISA. Values for the ELISA assays were graphed and analyzed with Prism GraphPad software.

Aβ42 oligomers [4] = target: T2, Aβ42 oligomers; test: Aβ42 CT immunoassay, metastability of pre-formed Aβ42 oligomers; conditions: addition to pre-formed Aβ42 oligomers, P<0.01 relative to samples without SI
Procedure: The effect of an Aβ oligomer inhibitor on the metastability of Aβ42 oligomers prepared according Example 1 was evaluated as follows. […] Similarly, the presence of Aβ42 oligomers was detected using an Aβ42 C-terminal (CT) AlphaLISA assay (Eglen et al., 2008, Curr. Chem. Genomics, 1:2-10), a bead based proximity assay, based upon an oxygen channeling technology. […] The immunoreactive signals were read with a multilabel plate reader (EnVision®, PerkinElmer, Waltham, Mass.). The presence of Aβ42 oligomers was determined by a corresponding decrease in the C-terminal immunosignal. Values for the AlphaLISA assays were graphed and analyzed with Prism GraphPad software. […] Values for the ELISA assays were graphed and analyzed with Prism GraphPad software.

In the case of `O[C@H]1[C@H](O)[C@@H](O)[C@H](O)[C@@H](O)[C@@H]1O` [SI, scyllo-inositol], the “% Intensity, Peak 1” value (Aβ42 [1]) is reported as 0.7%, the “% Intensity, Peak 2” value (Aβ42 [1]) is reported as 96.88% and the “% Mass, Peak 1” value (Aβ42 [1]) is reported as 76%. The “% Mass, Peak 2” value (Aβ42 [1]) was 38%, the “MW-R, Peak 1” value (Aβ42 [1]) was 11.6 kDa and the “MW-R, Peak 2” value (Aβ42 [1]) was 527.1 kDa. The “Radius, Peak 1” value (Aβ42 [1]) was 2.5 nm, the “Radius, Peak 2” value (Aβ42 [1]) was “remained unchanged” and the “% Mass, Peak 1” value (Aβ42 [1]; listed as Ab42/SI) was 72.93%. The “% Mass, Peak 2” value (Aβ42 [1]; listed as Ab42/SI) was 38.75%, the “Radius, Peak 2” value (Aβ42 [1]; listed as Ab42/SI) was 21.4 nm and the NT immunoreactivity (Aβ42 oligomers [2]; addition to pre-formed Aβ42 oligomers) was “significant decrease”. For the same compound, the “Aβ42 CT immunoreactivity” value (Aβ42 [3]) was “dose dependent increase” and the CT immunoreactivity (Aβ42 oligomers [4]) was “statistically significant increase”.

For `OC1C(O)C(O)C(O)C(O)C1O` (stereo not drawn) [chiro-inositol], the “Aβ42 CT immunoreactivity” value (Aβ42 [3]) was “no effect”.

In the case of `O[C@H]1[C@H](O)[C@@H](O)[C@H](O)[C@@H](O)[C@H]1O` [myo-inositol], the “Aβ42 CT immunoreactivity” value (Aβ42 [3]) is reported as “no effect”.

“Ac-Leu-Pro(N-CH3)Phe-Phe-Asp-NH2 [Peptide IV]” was tested, and the NT immunosignal (Aβ42 oligomers [2]; FIG. 7B) was “significant decrease” and the CT immunoreactivity (Aβ42 [3]; FIG. 7A) was “dose-depended increase”.
